Starred links: 1 amine or outer side, 2 acyl side, 3 side chain; linkers in the order of their positions; H or OH if unused. Positions of bridges follow the written chain, without caps; N, C: chain ends. Non-standard residues stand in square brackets, D forms with d. Residues, ends and D or L forms follow the SMILES beside them. *: point of attachment. X3 = CN(CCCCC(=O)N[C@@H](CS[*:2])C(=O)[*:1])[*:3]; Trp(7-Me) = Cc1cccc2c(C[C@H](N)C(=O)O)c[nH]c12; X1 = O=C(CCCCN[*:3])N[C@@H](CS[*:2])C(=O)[*:1]; 2Nal = N[C@@H](Cc1ccc2ccccc2c1)C(=O)O; AEF = NCCOc1ccc(C[C@H](N)C(=O)O)cc1; αMeL = CC(C)C[C@](C)(N)C(=O)O; Thp = NC1(C(=O)O)CCOCC1; Me2NCH2CH2 = CN(C)CC*; Aib = CC(C)(N)C(=O)O; Ahx = NCCCCCC(=O)O; Ava = NCCCCC(=O)O; βAla = NCCC(=O)O; Sar = CNCC(=O)O
System: T1, Pepsin
T1 construct: purchased Merck Millipore
Assay: Protease stability in simulated gastric fluid (Pepsin-SGF, FaSSGF)
Format: in vitro ADME
Settings: simulated gastric fluid with pepsin (Pepsin-SGF), 60 min, 1 μM peptide, 37° C., read-out: FaSSGF 60 (min), remaining percent of peptide
Method in brief: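 LCMS/MS peak areas, normalised to the time-0 sample as 100%, give percent remaining. Conditions: 37° C incubation of 1 μM final peptide in simulated gastric fluid with pepsin; ethanol/0.1% HCOOH quench at 0, 60, 120, 240 min.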

Structure (SMILES)	remaining at 1 h, 1 µM
CC(=O)N[C@H]1CCCCNC(=O)[C@@H]2CSSC[C@H](NC(=O)[C@H](CCC(N)=O)NC(=O)[C@H](Cc3c[nH]c4ccccc34)NC1=O)C(=O)N[C@@H](Cc1ccc(OCCN(C)C)cc1)C(=O)N[C@@H](Cc1ccc3ccccc3c1)C(=O)NC1(CCOCC1)C(=O)N[C@H](C(=O)N[C@@H](C)C(=O)N[C@H](CC(C)C)C(N)=O)CCC(=O)NCCCCC(=O)N2 [compound 33] (Ac-KWQCY(Me2NCH2CH2)[2Nal][Thp]EA[dL]-NH2; linker 1-4-8 via X1)	100%
CC(=O)NCCCC[C@@H]1NC(=O)[C@H](Cc2c[nH]c3c(C)cccc23)NC(=O)[C@H]([C@@H](C)O)NC(=O)[C@H](CC(N)=O)NC(=O)[C@@H]2CSSC[C@H](NC1=O)C(=O)N[C@@H](Cc1ccc(OCCN(C)C)cc1)C(=O)N[C@@H](Cc1ccc3ccccc3c1)C(=O)NC(C)(C)C(=O)N[C@H](C(=O)N[C@@H](CC(N)=O)C(=O)N[C@@H](Cc1c[nH]cn1)C(=O)N(C)CC(N)=O)CCC(=O)NCCCCC(=O)N2 [compound 45] ([Ava]CNT[Trp(7-Me)]K(Ac)CY(Me2NCH2CH2)[2Nal][Aib]ENH[Sar]-NH2; disulfide 2-7; lactam N-11)	100%
CC(=O)N[C@H]1CCCCNC(=O)[C@@H]2CSSC[C@H](NC(=O)[C@H](CCC(N)=O)NC(=O)[C@H](Cc3c[nH]c4ccccc34)NC1=O)C(=O)N[C@@H](Cc1ccc(OCCN)cc1)C(=O)N[C@@H](Cc1ccc3ccccc3c1)C(=O)NC1(CCOCC1)C(=O)N[C@H](C(=O)N[C@@H](CC(N)=O)C(=O)NCC(N)=O)CCC(=O)N(C)CCCCC(=O)N2 [compound 16] (Ac-KWQC[AEF][2Nal][Thp]ENG-NH2; linker 1-4-8 via X3)	62%
CC(=O)NCCCC[C@@H]1NC(=O)[C@H](Cc2c[nH]c3c(C)cccc23)NC(=O)[C@H]([C@@H](C)O)NC(=O)[C@H](CC(N)=O)NC(=O)[C@@H]2CSSC[C@H](NC1=O)C(=O)N[C@@H](Cc1ccc(OCCN(C)C)cc1)C(=O)N[C@@H](Cc1ccc3ccccc3c1)C(=O)N[C@@](C)(CC(C)C)C(=O)N[C@H](C(=O)N[C@@H](CC(N)=O)C(=O)N[C@@H](Cc1c[nH]cn1)C(=O)NCCC(N)=O)CCC(=O)NCCCCC(=O)N2 [compound 50] ([Ava]CNT[Trp(7-Me)]K(Ac)CY(Me2NCH2CH2)[2Nal][αMeL]ENH[βAla]-NH2; disulfide 2-7; lactam N-11)	99%
CC(=O)N[C@H]1CCCCNC(=O)[C@@H]2CSSC[C@H](NC(=O)[C@H](CCC(N)=O)NC(=O)[C@H](Cc3c[nH]c4ccccc34)NC1=O)C(=O)N[C@@H](Cc1ccc(OCCN)cc1)C(=O)N[C@@H](Cc1ccc3ccccc3c1)C(=O)NC1(CCOCC1)C(=O)N[C@H](C(=O)N[C@@H](C)C(=O)NCC(N)=O)CCC(=O)N(C)CCCCC(=O)N2 [compound 17] (Ac-KWQC[AEF][2Nal][Thp]EAG-NH2; linker 1-4-8 via X3)	71%

Next, values leading:

remaining at 1 h, 1 µM	Structure (SMILES)
72%	CC(=O)N[C@H]1CCCCNC(=O)[C@@H]2CSSC[C@H](NC(=O)[C@H](CCC(N)=O)NC(=O)[C@H](Cc3c[nH]c4ccccc34)NC1=O)C(=O)N[C@@H](Cc1ccc(OCCN)cc1)C(=O)N[C@@H](Cc1ccc3ccccc3c1)C(=O)N[C@@](C)(CC(C)C)C(=O)N[C@H](C(=O)N[C@@H](CC(N)=O)C(=O)N[C@@H](CC(N)=O)C(N)=O)CCC(=O)N(C)CCCCC(=O)N2 [compound 14] (Ac-KWQC[AEF][2Nal][αMeL]ENN-NH2; linker 1-4-8 via X3)
100%	CC(=O)NCCCC[C@@H]1NC(=O)[C@H](Cc2c[nH]c3c(C)cccc23)NC(=O)[C@H]([C@@H](C)O)NC(=O)[C@H](CC(N)=O)NC(=O)[C@@H]2CSSC[C@H](NC1=O)C(=O)N[C@@H](Cc1ccc(OCCN(C)C)cc1)C(=O)N[C@@H](Cc1ccc3ccccc3c1)C(=O)NC(C)(C)C(=O)N[C@H](C(=O)N[C@@H](CC(N)=O)C(=O)N[C@@H](Cc1c[nH]cn1)C(=O)NCCC(N)=O)CCC(=O)NCCCCC(=O)N2 [compound 48] ([Ava]CNT[Trp(7-Me)]K(Ac)CY(Me2NCH2CH2)[2Nal][Aib]ENH[βAla]-NH2; disulfide 2-7; lactam N-11)
77%	CC(C)C[C@@H](NC(=O)[C@H](CC(N)=O)NC(=O)[C@@H]1CCC(=O)NCCCCC(=O)N[C@H]2CSSC[C@H](NC(=O)[C@H](CCC(N)=O)NC(=O)[C@H](Cc3c[nH]c4ccccc34)NC(=O)[C@H]([C@@H](C)O)NC(=O)[C@H](CC(N)=O)NC2=O)C(=O)N[C@@H](Cc2ccc(OCCN(C)C)cc2)C(=O)N[C@@H](Cc2ccc3ccccc3c2)C(=O)N[C@@](C)(CC(C)C)C(=O)N1)C(N)=O [compound 10] ([Ava]CNTWQCY(Me2NCH2CH2)[2Nal][αMeL]EN[dL]-NH2; disulfide 2-7; lactam N-11)
2%	COc1ccc(C[C@@H]2NC(=O)[C@@H]3CSSC[C@H](NC(=O)CCC(=O)NCCCC[C@@H](C(=O)N[C@@H](CC(N)=O)C(=O)N[C@@H](CC(N)=O)C(N)=O)NC(=O)C(C)(C)NC(=O)[C@H](Cc4ccc5ccccc5c4)NC2=O)C(=O)N[C@@H](CC(N)=O)C(=O)N[C@@H]([C@@H](C)O)C(=O)N[C@@H](Cc2c[nH]c4ccccc24)C(=O)N[C@@H](CCC(N)=O)C(=O)N3)cc1 [compound 11]
2%	C[C@@H](O)[C@@H]1NC(=O)[C@H](CC(N)=O)NC(=O)[C@@H]2CSSC[C@H](NC(=O)[C@H](CCC(N)=O)NC(=O)[C@H](Cc3c[nH]c4ccccc34)NC1=O)C(=O)N[C@@H](Cc1ccc(OCCN)cc1)C(=O)N[C@@H](Cc1ccc3ccccc3c1)C(=O)NC(C)(C)C(=O)N[C@H](C(=O)N[C@@H](CC(N)=O)C(=O)NCC(N)=O)CC(=O)NCCCCCC(=O)N2 [compound 9] ([Ahx]CNTWQC[AEF][2Nal][Aib]DNG-NH2; disulfide 2-7; lactam N-11)
53%	CC(=O)N[C@H]1CCCCNC(=O)[C@@H]2CSSC[C@H](NC(=O)[C@H](CCC(N)=O)NC(=O)[C@H](Cc3c[nH]c4ccccc34)NC1=O)C(=O)N[C@@H](Cc1ccc(OCCN)cc1)C(=O)N[C@@H](Cc1ccc3ccccc3c1)C(=O)NC(C)(C)C(=O)N[C@H](C(=O)N[C@@H](CC(N)=O)C(=O)N[C@@H](CC(N)=O)C(N)=O)CCC(=O)N(C)CCCCC(=O)N2 [compound 12] (Ac-KWQC[AEF][2Nal][Aib]ENN-NH2; linker 1-4-8 via X3)
